The values below come from patent US11992011B2, “Compounds for controlling plant pathogens” (VIB VZW, priority 2017, dated 2024).

Data set [1] relates to C4H enzyme. Kind of data set: Yeast heterologous expression assay of C4H inhibition (Example 15). In kind it is biochemical. Here is the method:
Further structural analogs of the C4H inhibitor 4-iodobenzoic acid (IBA) were tested for their ability to inhibit the C4H enzyme in a yeast heterologous expression assay.

Data set [2] has as its system Arabidopsis thaliana (ecotype Col-0) seedlings. The data set can be described thus: In vitro Arabidopsis thaliana seedling growth assay (Example 15). In kind it is in vivo. Particulars: for Agravitropy ratio / Primary root length / Rosette area: 14 days old seedlings; for Agravitropy ratio / Primary root length / Rosette area / Germination rate: mean ± SD.
Data set [3] relates to Meloidogyne incognita. The data set can be described thus: M. incognita infection in DIECA-treated tomato (Example 18). It is filed as in vivo. Particulars: DIECA alone. Here is the method:
Infection experiments with M. incognita were performed in the same manner as those with M. graminicola, except that plants were harvested 31 days after inoculation instead of 14 days. At this point, the plants were phenotyped by measuring the root length with a ruler and in some experiments by measuring leaf area using the EasyLeafArea software (Easlon and Bloom, 2014) and by determining shoot dry mass after 72 hours of drying in an oven at 70° C. Galls were stained and counted as described above.
To determine whether C4H inhibitors depend on this hormonal pathway, it was tested whether tomato plants treated with the chemical inhibitor of jasmonic acid biosynthesis diethyldithiocarbamate (DIECA) (Farmer et al., 1994) still responded to PA treatment.

The test system of data set [4] is Meloidogyne graminicola. The data set can be described thus: Meloidogyne graminicola infection in rice cv. Kitaake, additional C4H inhibitors (Example 6). In kind it is in vivo. Particulars: foliar spray, N=8. Here is the method:
(§1) Unless otherwise mentioned, all chemicals for nematode experiments were applied as a foliar spray consisting of the target compound at a concentration of 300 μM together with 0.1% (v/v) Tween 20 surfactant (Calbiochem) in distilled water. Again unless otherwise mentioned, all treatments for the nematode experiments were carried out three times: one and eight days before pathogen inoculation and seven days after pathogen inoculation. In all cases, plants were sprayed until run-off with an atomizer.
(§2) Infection experiments with M. graminicola were performed by inoculating host plants 14 days after transfer to SAP by introducing the desired amount of J2 juveniles next to the root system using a micro pipette. Rice plants (cv. Nipponbare or Kitaake) were inoculated with 250 J2 juveniles per plant; wheat plants (cv. Sahara) were inoculated with 600 J2 juveniles per plant. Plants were harvested 14 days after inoculation. At this point, the plants were phenotyped by measuring the shoot and root length with a ruler, counting the number of adventitious roots and in some experiments by measuring leaf area using the EasyLeafArea software (Easlon and Bloom, 2014) and by determining shoot dry mass after 72 hours of drying in an oven at 70° C. Root systems were then stained in acid fuchsine as described in (Byrd et al., 1983) and left to destain in glycerol with 1 ml/l fuming HCl added for approximately ten days. The number of galls and nematodes was then counted using a binocular microscope.
Four different C4H inhibitors were used: piperonylic acid (PA), piperine (PIP), 4-propynyloxybenzoic acid (4PB) and 3-(4-pyridyl)acrylic acid (3PA).

The subject of data set [5] is J2 juveniles of Meloidogyne graminicola. Kind of data set: In vitro nematode toxicity assay, M. graminicola J2 (Example 11). The following applies: second experiment, C4H inhibitor 100 μM, Vertimec 0.02 v/v % abamectin, water control 93%. Here is the method:
J2 juveniles of Meloidogyne graminicola and Heterodera schachtii were isolated from Echinocloa cruss-galli roots and sugar beet roots respectively. Per treatment and species combination, 300 nematodes were isolated and divided over six wells that contained 1.5 ml of either sterilized tap water, a 100 μM C4H inhibitor solution or a 0.02 v/v % solution of the nematicide abamectin (Vertimec®, Syngenta AG). The nematodes were incubated in the dark on a slow-moving rotary shaker (50 rpm) and the number of living nematodes was counted regularly using a binocular microscope.
To rule out definitively that the compounds of the invention operate through direct toxicity to nematodes, an in vitro toxicity assay on J2 juveniles of the nematodes Meloidogyne graminicola and Heterodera schachtii was performed.
First, survival upon exposure to the C4H inhibitor piperonylic acid (PA) was compared to a negative control (tap water) and a positive control, the commercial nematicide Vertimec (0.02% Abamectin). A detailed survival curve is shown in FIG. 12a (M. graminicola) and FIG. 12b (H. schachtii).
In a second experiment, a broader range of C4H inhibitors were assayed in the same manner. The toxicity of piperonylic acid (PA), piperine (PIP), 4-propynyloxybenzoic acid (4PB), and 3-(4-pyridyl)acrylic acid (3PA) to J2 juveniles of Meloidogyne graminicola was compared to a negative control (tap water) and a true nematicide (Vertimec, active ingredient abamectin).

Data set [6] concerns carrot. The data set can be described thus: Phytotoxicity of foliar spray in uninfected carrot (Example 1). It is filed as in vivo, Daucus carota. The following applies: 500 μM foliar spray, 8 plants per treatment; for Leaf Area: mean ± standard deviation; for BBCH stage: median ± interquartile range. Here is the method:
Carrot seeds, cv. Nantes 2 (Vreeken's Zaden, Dordrecht, the Netherlands) were germinated on wet paper for seven days at 21° C. After germination, seedlings were transferred to individual pots filled with potting soil and placed in a growth chamber at 21° C.
as §1
(§3) Short-term phytotoxicity experiments (Example 1) were analyzed using non-parametric methods. For each variable, overall significance was determined using the Kruskal-Wallis test (Kruskal and Wallis, 1952), followed by a posthoc Conover-Iman test (Conover and Iman, 1981) with Hommel multiplicity correction (Hommel, 1988) if the Kruskal-Wallis test was significant. When only two groups were present, the Wilcoxon-Mann-Whitney test was used (Mann and Whitney, 1947).
(§4) To test whether C4H inhibitors induce phytotoxic effects in crops, uninfected tomato, wheat and carrot were treated with piperonylic acid (PA), 4-iodobenzoic acid (4-IBA) and piperic acid (PIA) at a concentration of 500 μM through foliar application. At harvest, leaf area (or shoot length in the case of wheat) and primary root length were recorded. The BBCH developmental stage (Lancashire et al., 1991), a measure of developmental retardation, was used to test for effects on development. Finally, the presence of visible signs of phytotoxicity such as chlorosis, discoloration or necrosis was recorded.

For data set [7], the system named is tomato. Kind of data set: Phytotoxicity of foliar spray in uninfected tomato (Example 1). It is filed as in vivo, Solanum lycopersicum. Particulars: 500 μM foliar spray, 8 plants per treatment; for Leaf Area / Root length: mean ± standard deviation; for BBCH stage: median ± interquartile range. Here is the method:
Tomato seeds, cv. Moneymaker (Vreeken's Zaden, Dordrecht, the Netherlands) were sown on autoclaved potting soil coveed with polyethylene film and placed at 24° C. for eight days. Seedlings were then transferred to individual SAP-filled pots and placed in a growth chamber at 24° C. Plants were watered three times per week with 25 ml of quarter-strength Hoagland solution for the first two weeks and half-strength thereafter.
as §1, §3, §4

In data set [8] the test system is wheat. The data set can be described thus: Phytotoxicity of foliar spray in uninfected wheat (Example 1). The following applies: 500 μM foliar spray, 8 plants per treatment; for Root length / Shoot length: mean ± standard deviation; for BBCH stage: median ± interquartile range. In kind it is in vivo, Triticum aestivum. Here is the method:
(§5) For Examples 1, 5 and 10, seeds of the winter wheat cultivar Sahara (Aveve Agrarisch, Landen, Belgium) were used. Seeds were washed in a 10% ethanol solution to remove any residual traces of fungicide and then germinated on wet paper at room temperature for four days; seeds were transferred to SAP tubes and placed in a growth chamber (25° C., 16 hours per day of light). Plants were watered with 8 ml of half-strength Hoagland solution every two days for the first ten days and with 8 ml of full strength Hoagland solution every two days afterwards.
as §1, §3, §4

Data set [9] concerns Meloidogyne graminicola. Kind of data set: Meloidogyne graminicola infection in wheat cv. Sahara (Example 5). It is filed as in vivo. Particulars: infected wheat, foliar spray. Here is the method:
as §5, §1, §2
In this experiment, the compounds PA, MDCA and 4-IBA were tested as foliar spray in the monocot staple crop wheat (Triticum aestivum, cv. Sahara) against the nematode Meloidogyne graminicola. The bacterial compound LPS (lipopolysaccharide), which is a potent inducer of the plant immune system and a known priming agent (Desaki et al., 2006), was also included as a positive control.

In data set [10] the test system is spring wheat (Triticum aestivum cv. Fielder). The data set can be described thus: Yield and fertility in pathogen-free spring wheat (Example 2). Particulars: 300 μM foliar spray three times; vs. control.
Procedure: For Example 2, the spring wheat cultivar Fielder was used. Seeds were obtained from plants grown in the greenhouse complex of the VIB (Zwijnaarde, Belgium). Seeds were sown directly in potting soil (four seeds to a pot, thinned to three plants per pot after emergence) and placed in a growth chamber at 21° C. with 16 hours per day of light. These plants were grown until harvest; they were sprayed three times with the compounds of the invention at a concentration of 300 μM using the protocol described in the chemicals section. Spraying took place 14 and 21 days after emergence and a final time at heading.
In all cases model assumptions were verified using diagnostic plots (residuals, QQ-plot, scale-location and residuals-leverage). Outliers were removed only if they were outliers both in the statistical sense and if there was a biological reason for removal (e.g. the plant was stunted or developed a secondary infection).
To determine the effects of C4H inhibition on yield and fertility, spring wheat (Triticum aestivum cv. Fielder) was grown in a pathogen-free growth chamber until maturity and treated with a control or C4H inhibitor-containing foliar spray at regular intervals. At harvest, the number of ears per plant, the seed mass, the size of the seeds and the germination ability of the freshly harvested seeds were measured. Seed size was measured using the stacking density of the seed as a proxy measure; if a given seed mass takes up a greater volume, then the individual seeds must be larger.

Turning to `O=C(O)c1ccc(C(F)(F)F)cc1` [CF3-BA, 4-trifluoromethylbenzoic acid], in data set [1], the C4H inhibitor activity entry is given as “significant C4H inhibitor activity”. Further, in [2] (50 μM), the Agravitropy ratio turned out to be 0.79 ± 0.15, the Primary root length stood at 0.42 ± 0.14 cm, the Rosette area stood at 0.16 ± 0.06 cm^2 and the Germination rate came out at 0.95 ± 0.22. For the same compound, in data set [2] (100 μM), the Agravitropy ratio was 0.81 ± 0.10, the Primary root length was found to be 0.41 ± 0.14 cm, the Rosette area amounted to 0.15 ± 0.09 cm^2 and the Germination rate is 0.84 ± 0.37. For the same compound, in [2] (seedlings grown on amended medium), the “seedling phenotype compared with IBA” value was “identical phenotype to those grown on medium containing IBA”.
Regarding `CCN(CC)C(=S)S` [DIECA, diethyldithiocarbamate, reference compound], the “change of number of galls, DIECA-treated tomato plants vs wild type” value in data set [3] was “+26%”.
Regarding `O=C(O)/C=C/c1ccncc1` [Formula 3PA, 3-(4-pyridyl)-acrylic acid], in [4], the “reduction in the number of galls compared to the control group” value (“reduction in the number of galls” for short) is recorded as −47%. Also, the “survival at the end of the experiment” value in [5] came to 93%.
As to `O=C(O)c1ccc(I)cc1` [Formula 4-IBA, 4-iodobenzoic acid], in data set [6], the “Leaf Area” value turned out to be 5.05 ± 1.35 cm^2 and the BBCH stage is recorded as 13 ± 0. In [7], the “Leaf Area” value was found to be 8.92 ± 1.91 cm^2, the Root length worked out at 7.40 ± 0.79 cm and the BBCH stage was 102.5 ± 1.0. In data set [8], the Root length is 14.36 ± 2.78 cm, the Shoot length was determined as 31.93 ± 3.38 cm and the BBCH stage was determined as 13 ± 0. The “survival at the end of the experiment” value in [5] is 89%. In [2] (50 μM), the Agravitropy ratio worked out at 0.78 ± 0.17, the Primary root length was 0.43 ± 0.15 cm, the Rosette area turned out to be 0.10 ± 0.06 cm^2 and the Germination rate is given as 0.88 ± 0.34. In [2] (100 μM), the Agravitropy ratio turned out to be 0.82 ± 0.11, the Primary root length was 0.28 ± 0.07 cm, the Rosette area is recorded as 0.05 ± 0.01 cm^2 and the Germination rate was 0.84 ± 0.37. Besides, in data set [9] (n = 9), the “Number of galls per AR” value amounted to 2.7 ± 0.8. The Number of galls in [9] (per root system, n = 9) is reported as 27.8 ± 7.5. In data set [9] (vs control), the “reduction in gall numbers” value is given as −27%.
Take `C#CCOc1ccc(C(=O)O)cc1` [Formula 4PB, 4-propynyloxybenzoic acid]: in [4], the “reduction in the number of galls” value is −44%. Further, in data set [5], the “survival at the end of the experiment” value was 91%. In data set [1], the C4H inhibitor activity entry was “significant C4H inhibitor activity”.
As to `O=C(O)/C=C/C=C/c1ccc2c(c1)OCO2` [PIA, Piperic acid], in data set [6], the “Leaf Area” value was determined as 4.78 ± 0.85 cm^2 and the BBCH stage is given as 13 ± 0. Further, in data set [7], the “Leaf Area” value came to 12.21 ± 1.66 cm^2, the Root length turned out to be 8.24 ± 1.90 cm and the BBCH stage was 103 ± 1.0. Further, in data set [8], the Root length came to 14.57 ± 1.24 cm, the Shoot length is given as 31.07 ± 4.82 cm and the BBCH stage is reported as 13 ± 0.
Consider `O=C(/C=C/C=C/c1ccc2c(c1)OCO2)N1CCCCC1` [piperine, Piperine], for which the “reduction in the number of galls” value in [4] was −33%. The “survival at the end of the experiment” value in data set [5] was 91%. In data set [10], the “Total yield (seed mass)” value is given as “small but statistically significant increase”, the “germination after fourteen days of freshly harvested seeds” value is “not significantly different”, the “mean number of ears per plant” value is “the same in all treatments” and the “seed size (stacking density)” value is reported as “no effect”.
